# Experimental data: patent US9675074B2, “Methods to reduce cold damage in cereals” (Valent BioSciences Corporation, priority 2014, dated 2017)
# Experiments:
# Corn [1] = test: Greenhouse corn, foliar GA3 before a simulated freeze event (−2° C. for 8 hours), evaluated 8 days after freezing; assay type: in vivo
# Method: Corn seeds were planted in 18 cell flats filled with Sunshine 900 mix. Osmocote Plus (cal mag) 16-8-12 and Gypsum ([…]) were added (standard medium). The plants were watered and fertilized with 100 ppm of a commercially available 15-5-15 mixture plus 100 ppm calcium and 100 ppm magnesium, pH 6.5, as necessary and grown in the greenhouse. After the corn grew for 7 days, the plants received a foliar application of 1.8 ml of 120 mg/liter GA3 plus 0.05% non-ionic surfactant per plant. Sixteen hours later, the GA3-treated and untreated control plants were moved to a cold room with temperature at −2° C. for 8 hours to simulate a freeze event. Plants were then moved to the greenhouse (25° C.). The plant height, number of injured leaves, and damaged leaf area were evaluated at 8 days after freezing.
# Corn [2] = test: Corn growth at 8° C. for 7 d after foliar GA3 application at V2; assay type: in vivo; conditions: 120 mg/liter (0.2 mg/plant: 6.9 grams of GA3/acre)
# Method: Corn seeds were planted in 2 quart pots filled with standard medium and grown in the greenhouse. After the corn grew for 10 days at 24° C., it was at the V2 growth stage. The 10d post-sowing plants received a foliar application of 1.8 ml of 120 mg/liter GA3 plus 0.05% of a non-ionic surfactant. Immediately after spraying, both the GA3-treated and untreated control plants were moved to a growth chamber set at 8° C. with a 12:12 photoperiod. The height of the plants was measured one week after treatment.
# [3] = 120 mg/liter GA3, 1.8 ml per plant, 16 h before −2° C. for 8 h, 8 days after freezing
# [4] = pre-frost GA3 treatment, 120 mg/liter
compound,measurement,setting,value
"C=C1C[C@]23C[C@@]1(O)CC[C@H]2[C@@]12C=C[C@H](O)[C@@](C)(C(=O)O1)[C@H]2[C@@H]3C(=O)O [GA3, gibberellic acid]",Damaged leaf area,Corn [1]; [3],12.4%
same,Number of injured leaf,Corn [1]; [3],2.6
same,Plant height,Corn [1]; [3],59.7 cm
same,Effect on number of injured leaves or damaged leaf area,Corn [1]; [4],did not reduce the number of injured leaves or damaged leaf area
same,Recovery from frost damage,Corn [1]; [4],did help the corn recover from the frost damage
same,Growth rate,Corn [2]; 7 d at 8° C.,0.58 cm/day
same,Height at 7 d,"Corn [2]; 7 d at 8° C., 12:12 photoperiod",28.0 cm
same,Height at Application,"Corn [2]; baseline at application, V2",23.9 cm
